# pKi: −log10 of the molar value. Like-named read-outs stand apart in the source and are kept apart here.
# Target: PLK1 (Homo sapiens, UniProt P53350)
# Test: PLK1 inhibition assay (radioactive-phosphate incorporation)
# Assay type: biochemical
# Conditions: 25° C., read-out: Ki in the radioactive incorporation assay (Ki(app))
# Protocol: The compounds of the present invention are evaluated as inhibitors of human PLK kinase using the following assays.
# Compounds were screened for their ability to inhibit PLK1 using a radioactive-phosphate incorporation assay. Assays were carried out in a mixture of 25 mM HEPES (pH 7.5), 10 mM MgCl2, 0.1% BSA, and 2 mM DTT. Final substrate concentrations were 150 μM (350 μM for determining values of less than 1 nM) [γ-33P]ATP (115 mCi 33P ATP/mmol ATP, Amersham Pharmacia Biotech/Sigma Chemicals) and 300 μM (450 μM for determining values of <1 nM) peptide (KKKISDELMDATFADQEAK) (SEQ ID NO:1). Assays were carried out at 25° C. in the presence of 4 nM (1 nM for determining values of less than 1 nM) PLK1. An assay stock buffer solution was prepared containing all of the reagents listed above, with the exception of ATP and the test compound of interest. 30 μL of the stock solution was placed in a 96 well plate followed by addition of 2 μL of DMSO stock containing serial dilutions of the test compound (typically starting from a final concentration of 10 μM with 2-fold serial dilutions) in duplicate (final DMSO concentration 5%). The plate was pre-incubated for 10 minutes at 25° C. and the reaction initiated by addition of 8 μL [γ-33P]ATP (final concentration 150 μM (350 μM for determining values of less than 1 nM))).
# The reaction was stopped after 90 minutes (240 minutes for determining values of less than 1 nM) by the addition of 100 μL 0.14M phosphoric acid. A multiscreen phosphocellulose filter 96-well plate (Millipore, Cat. No. MAPHN0B50) was pretreated with 100 μL 0.2M phosphoric acid prior to the addition of 125 μL of the stopped assay mixture. The plate was washed with 200 μL 0.2M phosphoric acid for 4 times. After drying, 100 μL Optiphase ‘SuperMix’ liquid scintillation cocktail (Perkin Elmer) was added to the well prior to scintillation counting (1450 Microbeta Liquid Scintillation Counter, Wallac).
# After removing mean background values for all of the data points, Ki(app) data were calculated from non-linear regression analysis of the initial rate data using the Prism software package (GraphPad Prism version 3.0cx for Macintosh, GraphPad Software, San Diego Calif., USA).
# [1] = conditions for values of less than 1 nM: 350 μM ATP, 450 μM peptide, 1 nM PLK1, 240 minutes
# [2] = 150 μM ATP, 300 μM peptide, 4 nM PLK1, 90 minutes
# PLK1, sequence (P53350 whole entry): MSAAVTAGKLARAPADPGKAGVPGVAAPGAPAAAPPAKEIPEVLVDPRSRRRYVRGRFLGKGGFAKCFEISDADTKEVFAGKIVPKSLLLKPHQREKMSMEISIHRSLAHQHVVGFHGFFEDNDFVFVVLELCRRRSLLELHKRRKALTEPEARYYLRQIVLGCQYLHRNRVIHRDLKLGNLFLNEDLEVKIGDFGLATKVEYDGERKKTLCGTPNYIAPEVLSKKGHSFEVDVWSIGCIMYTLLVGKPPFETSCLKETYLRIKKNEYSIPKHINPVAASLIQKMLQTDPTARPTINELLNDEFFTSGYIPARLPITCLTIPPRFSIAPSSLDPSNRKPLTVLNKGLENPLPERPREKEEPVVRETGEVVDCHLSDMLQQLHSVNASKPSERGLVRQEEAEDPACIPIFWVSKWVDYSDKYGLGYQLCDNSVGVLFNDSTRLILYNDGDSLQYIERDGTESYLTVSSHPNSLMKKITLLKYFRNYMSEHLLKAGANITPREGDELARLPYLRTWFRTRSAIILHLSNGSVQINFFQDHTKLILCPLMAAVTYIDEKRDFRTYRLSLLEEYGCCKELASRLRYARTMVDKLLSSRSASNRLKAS
SMILES,pKi [1],pKi [2]
"COc1cc(C(=O)N[C@@H]2CC[C@@H](F)C2)ccc1Nc1ncc2c(n1)N([C@@H]1CCC(F)(F)C1)CC(C)(C)C(=O)N2C [Compound I-2, 4-(9-((R)-3,3-difluorocyclopentyl)-5,7,7-trimethyl-6-oxo-6,7,8,9-tetrahydro-5H-pyrimido[4,5-b][1,4]diazepin-2-ylamino)-N-((1R,3R)-3-fluorocyclopentyl)-3-methoxybenzamide]",> 9.00,–
"COc1cc(C(=O)N[C@@H]2CCC(F)(F)C2)ccc1Nc1ncc2c(n1)N([C@@H]1CCC(F)(F)C1)CC(C)(C)C(=O)N2C [Compound I-3, N-((R)-3,3-difluorocyclopentyl)-4-(9-((R)-3,3-difluorocyclopentyl)-5,7,7-trimethyl-6-oxo-6,7,8,9-tetrahydro-5H-pyrimido[4,5-b][1,4]diazepin-2-ylamino)-3-methoxybenzamide]",> 9.00,–
"COc1cc(C(=O)NC2CC2)ccc1Nc1ncc2c(n1)N([C@@H]1CCC(F)(F)C1)CC1(CC1)C(=O)N2C [Compound I-4, (R)—N-cyclopropyl-4-(9′-(3,3-difluorocyclopentyl)-5′-methyl-6′-oxo-5′,6′,8′,9′-tetrahydrospiro[cyclopropane-1,7′-pyrimido[4,5-b][1,4]diazepine]-2′-ylamino)-3-methoxybenzamide]",–,8.00 to 9.00
"COc1cc(C(=O)N[C@@H]2CCC(F)(F)C2)ccc1Nc1ncc2c(n1)N([C@@H]1CCC(F)(F)C1)CC1(CC1)C(=O)N2C [Compound I-5, N-((R)-3,3-difluorocyclopentyl)-4-(9′-((R)-3,3-difluorocyclopentyl)-5′-methyl-6′-oxo-5′,6′,8′,9′-tetrahydrospiro[cyclopropane-1,7′-pyrimido[4,5-b][1,4]diazepine]-2′-ylamino)-3-methoxybenzamide]",–,8.00 to 9.00
"COc1cc(C(=O)NC2CC2)ccc1Nc1ncc2c(n1)N([C@@H]1CCC(F)(F)C1)CC(C)(C)C(=O)N2C [Compound I-1, (R)—N-cyclopropyl-4-(9-(3,3-difluorocyclopentyl)-5,7,7-trimethyl-6-oxo-6,7,8,9-tetrahydro-5H-pyrimido[4,5-b][1,4]diazepin-2-ylamino)-3-methoxybenzamide]",–,8.00 to 9.00

# Continued, values first:
pKi [1],pKi [2],SMILES
> 9.00,–,"CCNC(=O)c1ccc(Nc2ncc3c(n2)N([C@@H]2CCC(F)(F)C2)[C@H](CC)c2nncn2-3)c(OC)c1 [Compound I-6, 4-((R)-5-((R)-3,3-difluorocyclopentyl)-4-ethyl-4,5-dihydro-[1,2,4]triazolo[4,3-f]pteridin-7-ylamino)-N-ethyl-3-methoxybenzamide]"
> 9.00,–,"CC[C@@H]1c2nncn2-c2cnc(Nc3ccc(C(=O)NC4CC4)cc3OC)nc2N1[C@@H]1CCC(F)(F)C1 [Compound I-7, N-cyclopropyl-4-((R)-5-((R)-3,3-difluorocyclopentyl)-4-ethyl-4,5-dihydro-[1,2,4]triazolo[4,3-f]pteridin-7-ylamino)-3-methoxybenzamide]"
> 9.00,–,"CCNC(=O)c1ccc(Nc2ncc3c(n2)N([C@@H]2CCC(F)(F)C2)[C@H](CC)C(=O)N3C)c(OC)c1 [Compound I-8, 4-((R)-8-((R)-3,3-difluorocyclopentyl)-7-ethyl-5-methyl-6-oxo-5,6,7,8-tetrahydropteridin-2-ylamino)-N-ethyl-3-methoxybenzamide]"
> 9.00,–,"CC[C@@H]1C(=O)N(C)c2cnc(Nc3ccc(C(=O)NC4CC4)cc3OC)nc2N1[C@@H]1CCC(F)(F)C1 [Compound I-9, N-cyclopropyl-4-((R)-8-((R)-3,3-difluorocyclopentyl)-7-ethyl-5-methyl-6-oxo-5,6,7,8-tetrahydropteridin-2-ylamino)-3-methoxybenzamide]"

# — patent US8461149B2, “Compounds useful as protein kinase inhibitors” (Vertex Pharmaceuticals Incorporated, priority 2007, dated 2013)
